These results are taken from patent US10363239B2, “Method for inhibiting growth of cancer cells” (Pain Therapeutics, Inc., priority 2013, dated 2019).

As a reminder, the inhibition is the percentage by which the read-out fell short of the control.

One test deals with mu opiate receptor (MOR). The test can be described thus: MOR agonist activity using [35S]GTPγS binding assay in striatal membranes. The class given is biochemical. The settings on record: 0.1 μM compound. The protocol: To assess the mu opiate receptor (MOR) agonist activity of positive compounds from the FLNA screening, compounds were tested in a [^35S]GTPγS binding assay using striatal membranes. […] This assay measures a functional consequence of receptor occupancy at one of the earliest receptor-mediated events. The assay permits traditional pharmacological parameters of potency, efficacy and antagonist affinity, with the advantage that agonist measures are not subjected to amplification or other modulation that may occur when analyzing parameters further downstream of the receptor.
Thus, striatal tissue was homogenized in 10 volumes of ice cold 25 mM HEPES buffer, pH 7.4, which contained 1 mM EGTA, 100 mM sucrose, 50 μg/ml leupeptin, 0.04 mM PMSF, 2 μg/ml soybean trypsin inhibitor and 0.2% 2-mercaptoethanol. The homogenates were centrifuged at 800×g for 5 minutes and the supernatants were centrifuged at 49,000×g for 20 minutes. The resulting pellets were suspended in 10 volume of reaction buffer, which contained 25 mM HEPES, pH 7.5, 100 mM NaCl, 50 μg/ml leupeptin, 2 μg/ml soybean trypsin inhibitor, 0.04 mM PMSF and 0.02% […].
The resultant striatal membrane preparation (200 μg) was admixed and maintained (incubated) at 30° C. for 5 minutes in reaction buffer as above that additionally contained 1 mM MgCl2 and 0.5 nM [^35S]GTPγS (0.1 μCi/assay, PerkinElmer Life and Analytical Sciences) in a total volume of 250 μl and continued for 5 minutes in the absence or presence of 0.1-10 μM of an assayed compound of interest. The reaction was terminated by dilution with 750 μl of ice-cold reaction buffer that contained 20 mM MgCl2 and 1 mM EGTA and immediate centrifugation at 16,000×g for 5 minutes.
The resulting pellet was solubilized by sonicating for 10 seconds in 0.5 ml of immunoprecipitation buffer containing 0.5% digitonin, 0.2% sodium cholate and 0.5% NP-40. Normal rabbit serum (1 μl) was added to 1 ml of lysate and incubated at 25° C. for 30 minutes. Nonspecific immune complexes were removed by incubation with 25 μl of protein A/G-conjugated agarose beads at 25° C. for 30 minutes followed by centrifugation at 5,000×g at 4° C. for 5 minutes. The supernatant was divided and separately incubated at 25° C. for 30 minutes with antibodies raised against Gαo proteins (1:1,000 dilutions).
The immunocomplexes so formed were collected by incubation at 25° C. for 30 minutes with 40 μl of agarose-conjugated protein A/G beads and centrifugation at 5,000×g at 4° C. for 5 minutes. The pellet was washed and suspended in buffer containing 50 mM Tris-HCl, pH 8.0, and 1% NP-40. The radioactivity in the suspension was determined by liquid scintillation spectrometry.
Regarding `COc1ccc(OCC(O)CN2CC(C)OC(C)C2)cc1` (stereo not drawn) [Compound A0048], the “MOR agonist activity ([35S]GTPγS binding), FLNA-Binding Compound as Agonist 0.1 μM” value turned out to be 233.7%.
With `CC1CCC(C(C)C)C(OCC(O)CN(C(C)C)C(C)C)C1` (stereo not drawn) [Compound A0037], the “MOR agonist activity ([35S]GTPγS binding), FLNA-Binding Compound as Agonist 0.1 μM” value came to 177.9%.

Staying with this test, now noted: 0.1 μM compound relative to DAMGO.
On to `COc1ccc(OCC(O)CN2CC(C)OC(C)C2)cc1` (stereo not drawn) [Compound A0048], for which the “% DAMGO (0.1 μM)” value was 119.1%.
`CC1CCC(C(C)C)C(OCC(O)CN(C(C)C)C(C)C)C1` (stereo not drawn) [Compound A0037]: the “% DAMGO (0.1 μM)” value came to 90.7%.

Still in this test, the particulars now being: 1 μM compound.
In the case of `COc1ccc(OCC(O)CN2CC(C)OC(C)C2)cc1` (stereo not drawn) [Compound A0048], the “MOR agonist activity ([35S]GTPγS binding), FLNA-Binding Compound as Agonist 1 μM” value is given as 302.9%.
On the same count and under the same terms, to `CC1CCC(C(C)C)C(OCC(O)CN(C(C)C)C(C)C)C1` (stereo not drawn) [Compound A0037] belongs 236.2%.

Still in this test, the particulars now being: 1 μM compound + 1 μM β-funaltrexamine.
`COc1ccc(OCC(O)CN2CC(C)OC(C)C2)cc1` (stereo not drawn) [Compound A0048]: the “MOR agonist activity ([35S]GTPγS binding), FLNA-Binding Compound as Agonist 1 μM + BFNA” value turned out to be 167.2%.
As for `CC1CCC(C(C)C)C(OCC(O)CN(C(C)C)C(C)C)C1` (stereo not drawn) [Compound A0037], the “MOR agonist activity ([35S]GTPγS binding), FLNA-Binding Compound as Agonist 1 μM + BFNA” value was 104.6%.

Staying with this test, now noted: 1 μM compound + BFNA relative to DAMGO + BFNA.
In the case of `COc1ccc(OCC(O)CN2CC(C)OC(C)C2)cc1` (stereo not drawn) [Compound A0048], the “% DAMGO + BFNA” value is 226.3%.
With `CC1CCC(C(C)C)C(OCC(O)CN(C(C)C)C(C)C)C1` (stereo not drawn) [Compound A0037], the “% DAMGO + BFNA” value worked out at 141.5%.

Still in this test, the particulars now being: 1 μM compound relative to DAMGO.
Turning to `COc1ccc(OCC(O)CN2CC(C)OC(C)C2)cc1` (stereo not drawn) [Compound A0048], the “% DAMGO (1 μM)” value came to 109.7%.
Take `CC1CCC(C(C)C)C(OCC(O)CN(C(C)C)C(C)C)C1` (stereo not drawn) [Compound A0037]: the “% DAMGO (1 μM)” value was determined as 85.6%.

Staying with this test, now noted: Series B; 0.1 μM compound, relative to DAMGO.
As to `COc1cc(CC(=O)CC2c3c(cc4c(c3OC)OCO4)CC[N+]2(C)C)cc(OC)c1OC` (stereo not drawn) [Compound B0008], the “% DAMGO (0.1 μM)” value was determined as 84.0%.
As for `COc1c2c(cc3c1C(CC(=O)Cc1ccccc1C)N(C)CC3)OCO2` (stereo not drawn) [Compound B0053], the “% DAMGO (0.1 μM)” value stood at 94.8%.

Staying with this test, now noted: Series B; 0.1 μM compound; [35S]GTPγS binding to Gαo, striatal membranes.
For the molecule `COc1cc(CC(=O)CC2c3c(cc4c(c3OC)OCO4)CC[N+]2(C)C)cc(OC)c1OC` (stereo not drawn) [Compound B0008], the “MOR agonist activity, percent [35S]GTPγS binding at the stated compound concentration” value (“MOR agonist activity, percent” below) came to 148.3%.
Turning to `COc1c2c(cc3c1C(CC(=O)Cc1ccccc1C)N(C)CC3)OCO2` (stereo not drawn) [Compound B0053], the “MOR agonist activity, percent” value turned out to be 160.2%.

The test is the same for the next values; noted with them: Series B; 1 μM compound + 1 μM β-FNA.
`COc1cc(CC(=O)CC2c3c(cc4c(c3OC)OCO4)CC[N+]2(C)C)cc(OC)c1OC` (stereo not drawn) [Compound B0008]: the “MOR agonist activity, percent” value is 46.0%.
With `COc1c2c(cc3c1C(CC(=O)Cc1ccccc1C)N(C)CC3)OCO2` (stereo not drawn) [Compound B0053], the “MOR agonist activity, percent” value turned out to be 134.3%.

Still in this test, the particulars now being: Series B; 1 μM compound + β-FNA, relative to DAMGO + BFNA.
Take `COc1cc(CC(=O)CC2c3c(cc4c(c3OC)OCO4)CC[N+]2(C)C)cc(OC)c1OC` (stereo not drawn) [Compound B0008]: the “% DAMGO + BFNA” value is 70.0%.
In the case of `COc1c2c(cc3c1C(CC(=O)Cc1ccccc1C)N(C)CC3)OCO2` (stereo not drawn) [Compound B0053], the “% DAMGO + BFNA” value worked out at 809.0%.

The test is the same for the next values; noted with them: Series B; 1 μM compound, relative to DAMGO.
As to `COc1cc(CC(=O)CC2c3c(cc4c(c3OC)OCO4)CC[N+]2(C)C)cc(OC)c1OC` (stereo not drawn) [Compound B0008], the “% DAMGO (1 μM)” value is 101.9%.
The same measure, in the same setting: next, `COc1c2c(cc3c1C(CC(=O)Cc1ccccc1C)N(C)CC3)OCO2` (stereo not drawn) [Compound B0053]: 137.0%.

The same test, now with this note: Series B; 1 μM compound; [35S]GTPγS binding to Gαo, striatal membranes.
On to `COc1cc(CC(=O)CC2c3c(cc4c(c3OC)OCO4)CC[N+]2(C)C)cc(OC)c1OC` (stereo not drawn) [Compound B0008], for which the “MOR agonist activity, percent” value turned out to be 264.1%.
For `COc1c2c(cc3c1C(CC(=O)Cc1ccccc1C)N(C)CC3)OCO2` (stereo not drawn) [Compound B0053], the “MOR agonist activity, percent” value is recorded as 299.8%.

The same test, now with this note: Series C-1; 0.1 μM compound, relative to DAMGO.
Take `O=S(=O)(c1ccc(OC(F)(F)F)cc1)N1CCC2(CC1)OCCN2S(=O)(=O)c1ccc(OC(F)(F)F)cc1` [Compound C0006]: the “% DAMGO (0.1 μM)” value came out at 70.6%.

The test is the same for the next values; noted with them: Series C-1; 0.1 μM compound; [35S]GTPγS binding to Gαo, striatal membranes.
For the molecule `O=S(=O)(c1ccc(OC(F)(F)F)cc1)N1CCC2(CC1)OCCN2S(=O)(=O)c1ccc(OC(F)(F)F)cc1` [Compound C0006], the “Concentration of FLNA-Binding Compound as Agonist 0.1 μM” value is given as 121.5%.

Still in this test, the particulars now being: Series C-1; 1 μM compound + 1 μM β-FNA.
With `O=S(=O)(c1ccc(OC(F)(F)F)cc1)N1CCC2(CC1)OCCN2S(=O)(=O)c1ccc(OC(F)(F)F)cc1` [Compound C0006], the “Concentration of FLNA-Binding Compound as Agonist 1 μM + BFNA” value is given as 4.6%.

The test is the same for the next values; noted with them: Series C-1; 1 μM compound + β-FNA, relative to DAMGO + BFNA.
For the molecule `O=S(=O)(c1ccc(OC(F)(F)F)cc1)N1CCC2(CC1)OCCN2S(=O)(=O)c1ccc(OC(F)(F)F)cc1` [Compound C0006], the “% DAMGO + BFNA” value is 7.2%.

Staying with this test, now noted: Series C-1; 1 μM compound, relative to DAMGO.
For the molecule `O=S(=O)(c1ccc(OC(F)(F)F)cc1)N1CCC2(CC1)OCCN2S(=O)(=O)c1ccc(OC(F)(F)F)cc1` [Compound C0006], the “% DAMGO (1 μM)” value came to 73.8%.

The test is the same for the next values; noted with them: Series C-1; 1 μM compound; [35S]GTPγS binding to Gαo, striatal membranes.
Regarding `O=S(=O)(c1ccc(OC(F)(F)F)cc1)N1CCC2(CC1)OCCN2S(=O)(=O)c1ccc(OC(F)(F)F)cc1` [Compound C0006], the “Concentration of FLNA-Binding Compound as Agonist 1 μM” value worked out at 204.0%.

A further test has as its target FLNA pentapeptide of SEQ ID NO: 1 (Bn-VAKGL) (Homo sapiens, UniProt P21333). The test can be described thus: FITC-NLX-based FLNA screening assay (inhibition of FITC-naloxone binding to Bn-VAKGL on streptavidin plates). Particulars: read-out: Percent Binding Inhibition, FLNA-binding compound 0.01 μM; 10 nM FITC-NLX.
With `COc1ccc(OCC(O)CN2CC(C)OC(C)C2)cc1` (stereo not drawn) [Compound A0048], the inhibition at 0.01 µM stood at 38.5%.
On to `O=S(=O)(c1ccc(OC(F)(F)F)cc1)N1CCC2(CC1)OCCN2S(=O)(=O)c1ccc(OC(F)(F)F)cc1` [Compound C0006], for which the inhibition at 0.01 µM was 41.6%.
Regarding `COc1cc(CC(=O)CC2c3c(cc4c(c3OC)OCO4)CC[N+]2(C)C)cc(OC)c1OC` (stereo not drawn) [Compound B0008], the inhibition at 0.01 µM worked out at 35.5%.
On the same count and under the same terms, to `CC1CCC(C(C)C)C(OCC(O)CN(C(C)C)C(C)C)C1` (stereo not drawn) [Compound A0037] belongs 49.3%; to `COc1c2c(cc3c1C(CC(=O)Cc1ccccc1C)N(C)CC3)OCO2` (stereo not drawn) [Compound B0053], 33.1%.

Still in this test, the particulars now being: read-out: Percent Binding Inhibition, FLNA-binding compound 0.1 μM; 10 nM FITC-NLX.
Consider `COc1ccc(OCC(O)CN2CC(C)OC(C)C2)cc1` (stereo not drawn) [Compound A0048], for which the inhibition at 0.1 µM came to 44%.
For `O=S(=O)(c1ccc(OC(F)(F)F)cc1)N1CCC2(CC1)OCCN2S(=O)(=O)c1ccc(OC(F)(F)F)cc1` [Compound C0006], the inhibition at 0.1 µM stood at 46.8%.
Same read-out and setting: next, `COc1cc(CC(=O)CC2c3c(cc4c(c3OC)OCO4)CC[N+]2(C)C)cc(OC)c1OC` (stereo not drawn) [Compound B0008]: 40.3%; `CC1CCC(C(C)C)C(OCC(O)CN(C(C)C)C(C)C)C1` (stereo not drawn) [Compound A0037]: 51.3%.
The same measure, in the same setting: next, `COc1c2c(cc3c1C(CC(=O)Cc1ccccc1C)N(C)CC3)OCO2` (stereo not drawn) [Compound B0053]: 37.3%.

Still in this test, the particulars now being: read-out: Percent Binding Inhibition, FLNA-binding compound 1 μM; 10 nM FITC-NLX.
As for `COc1ccc(OCC(O)CN2CC(C)OC(C)C2)cc1` (stereo not drawn) [Compound A0048], the inhibition at 1 µM was determined as 46.9%.
Turning to `O=S(=O)(c1ccc(OC(F)(F)F)cc1)N1CCC2(CC1)OCCN2S(=O)(=O)c1ccc(OC(F)(F)F)cc1` [Compound C0006], the inhibition at 1 µM worked out at 51.8%.
With `COc1cc(CC(=O)CC2c3c(cc4c(c3OC)OCO4)CC[N+]2(C)C)cc(OC)c1OC` (stereo not drawn) [Compound B0008], the inhibition at 1 µM turned out to be 52.8%.
`CC1CCC(C(C)C)C(OCC(O)CN(C(C)C)C(C)C)C1` (stereo not drawn) [Compound A0037]: the inhibition at 1 µM turned out to be 56.8%.
The same measure, in the same setting: to `COc1c2c(cc3c1C(CC(=O)Cc1ccccc1C)N(C)CC3)OCO2` (stereo not drawn) [Compound B0053] belongs 47.6%.
